Assay results taken from the CheMixHub ionic liquid set.

Assay: xn = mol fraction of the nth substance listed

CCCCCCCCCCCCCCCC[n+]1ccccc1.O=C([O-])C(O)c1ccccc1 + NCC(=O)O + O
electrical conductivity [S/m], 101 kPa
Conditions | 293.15 K | 298.15 K | 303.15 K | 308.15 K | 313.15 K
x1 = 1.08e-06, x2 = 0 | 0.00061 | 0.00068 | 0.00076 | 0.00083 | 0.0009
x1 = 1.09e-06, x2 = 0.001799 | 0.00103 | 0.00118 | 0.0013 | 0.0015 | 0.0017
x1 = 1.26e-06, x2 = 0.0009002 | 0.00083 | 0.00094 | 0.00106 | 0.0012 | 0.0013
x1 = 1.98e-06, x2 = 0 | 0.001 | 0.0012 | 0.0013 | 0.0014 | 0.0016
x1 = 2.17e-06, x2 = 0.001799 | 0.00151 | 0.00172 | 0.0019 | 0.0022 | 0.0024
x1 = 2.35e-06, x2 = 0.0009002 | 0.00125 | 0.00142 | 0.0016 | 0.0018 | 0.0019
x1 = 2.88e-06, x2 = 0 | 0.00147 | 0.0016 | 0.0018 | 0.002 | 0.0022
x1 = 3.26e-06, x2 = 0.001799 | 0.00188 | 0.0022 | 0.0024 | 0.0027 | 0.003
x1 = 3.43e-06, x2 = 0.0009002 | 0.00163 | 0.00185 | 0.0021 | 0.0023 | 0.0025
x1 = 3.96e-06, x2 = 0 | 0.0019 | 0.0022 | 0.0024 | 0.0026 | 0.0029
x1 = 4.35e-06, x2 = 0.001799 | 0.00233 | 0.00265 | 0.0029 | 0.0033 | 0.0036
x1 = 4.52e-06, x2 = 0.0009002 | 0.00209 | 0.00237 | 0.0026 | 0.0029 | 0.0032
x1 = 4.69e-06, x2 = 0 | 0.0023 | 0.0026 | 0.0029 | 0.0031 | 0.0035
x1 = 5.26e-06, x2 = 0.001799 | 0.00273 | 0.00308 | 0.0034 | 0.0038 | 0.0042
x1 = 5.78e-06, x2 = 0.0009002 | 0.00258 | 0.00291 | 0.0032 | 0.0036 | 0.004
x1 = 5.95e-06, x2 = 0 | 0.00281 | 0.0032 | 0.0035 | 0.0038 | 0.0042
x1 = 6.52e-06, x2 = 0.001799 | 0.0032 | 0.00363 | 0.004 | 0.0045 | 0.005
x1 = 7.05e-06, x2 = 0.0009002 | 0.00305 | 0.00343 | 0.0038 | 0.0042 | 0.0046
x1 = 7.21e-06, x2 = 0 | 0.00341 | 0.0038 | 0.0042 | 0.0046 | 0.0051
x1 = 8.16e-06, x2 = 0.001799 | 0.00379 | 0.00429 | 0.0048 | 0.0053 | 0.0059
x1 = 8.31e-06, x2 = 0.0009002 | 0.00355 | 0.00401 | 0.0045 | 0.0049 | 0.0054
x1 = 8.83e-06, x2 = 0 | 0.00406 | 0.0046 | 0.005 | 0.0055 | 0.006
x1 = 9.79e-06, x2 = 0.001799 | 0.00435 | 0.00491 | 0.0055 | 0.0061 | 0.0068
x1 = 9.94e-06, x2 = 0.0009002 | 0.00404 | 0.00455 | 0.0051 | 0.0056 | 0.0063
x1 = 1.045e-05, x2 = 0 | 0.00469 | 0.0053 | 0.0058 | 0.0065 | 0.0071
x1 = 1.124e-05, x2 = 0.001799 | 0.00472 | 0.00536 | 0.006 | 0.0067 | 0.0075
x1 = 1.138e-05, x2 = 0.0009002 | 0.00443 | 0.00502 | 0.00561 | 0.0062 | 0.007
x1 = 1.207e-05, x2 = 0 | 0.00516 | 0.0058 | 0.0064 | 0.0071 | 0.0079
x1 = 1.269e-05, x2 = 0.001799 | 0.00515 | 0.00581 | 0.0065 | 0.0073 | 0.0081
x1 = 1.283e-05, x2 = 0.0009002 | 0.00481 | 0.00543 | 0.00607 | 0.0068 | 0.0076
x1 = 1.351e-05, x2 = 0 | 0.00562 | 0.00631 | 0.007 | 0.0077 | 0.0085
x1 = 1.41e-05, x2 = 0.0009002 | 0.00512 | 0.0058 | 0.00647 | 0.0072 | 0.008
x1 = 1.414e-05, x2 = 0.001799 | 0.00553 | 0.00625 | 0.007 | 0.0078 | 0.0087
x1 = 1.478e-05, x2 = 0 | 0.00603 | 0.0068 | 0.0075 | 0.0083 | 0.0092
x1 = 1.54e-05, x2 = 0.001799 | 0.00584 | 0.0066 | 0.0074 | 0.0083 | 0.0092
x1 = 1.554e-05, x2 = 0.0009002 | 0.0055 | 0.00621 | 0.0069 | 0.0077 | 0.0086
x1 = 1.622e-05, x2 = 0 | 0.00644 | 0.0072 | 0.008 | 0.0089 | 0.0098
x1 = 1.667e-05, x2 = 0.001799 | 0.00618 | 0.00697 | 0.0078 | 0.0087 | 0.0097
x1 = 1.681e-05, x2 = 0.0009002 | 0.0058 | 0.00657 | 0.0073 | 0.0082 | 0.0091
x1 = 1.766e-05, x2 = 0 | 0.00687 | 0.0077 | 0.0085 | 0.0094 | 0.0104

CC(=O)[O-].CCCC[N+]1(C)CCCC1 + O
298.15 K, 101.3 kPa, frequency 100 MHz
Conditions | electrical conductivity [S/m]
x1 = 0.017 | 2.62
x1 = 0.163 | 0.985

CCCCCCCCCCCCCCCC[n+]1ccccc1.O=C([O-])C(O)c1ccccc1 + O
electrical conductivity [S/m], 101 kPa
Conditions | 293.15 K | 298.15 K | 303.15 K | 308.15 K | 313.15 K
x1 = 1.08e-06 | 0.00061 | 0.00068 | 0.00076 | 0.00083 | 0.0009
x1 = 1.98e-06 | 0.001 | 0.0012 | 0.0013 | 0.0014 | 0.0016
x1 = 2.88e-06 | 0.00147 | 0.0016 | 0.0018 | 0.002 | 0.0022
x1 = 3.96e-06 | 0.0019 | 0.0022 | 0.0024 | 0.0026 | 0.0029
x1 = 4.69e-06 | 0.0023 | 0.0026 | 0.0029 | 0.0031 | 0.0035
x1 = 5.95e-06 | 0.00281 | 0.0032 | 0.0035 | 0.0038 | 0.0042
x1 = 7.21e-06 | 0.00341 | 0.0038 | 0.0042 | 0.0046 | 0.0051
x1 = 8.83e-06 | 0.00406 | 0.0046 | 0.005 | 0.0055 | 0.006
x1 = 1.045e-05 | 0.00469 | 0.0053 | 0.0058 | 0.0065 | 0.0071
x1 = 1.207e-05 | 0.00516 | 0.0058 | 0.0064 | 0.0071 | 0.0079
x1 = 1.351e-05 | 0.00562 | 0.00631 | 0.007 | 0.0077 | 0.0085
x1 = 1.478e-05 | 0.00603 | 0.0068 | 0.0075 | 0.0083 | 0.0092
x1 = 1.622e-05 | 0.00644 | 0.0072 | 0.008 | 0.0089 | 0.0098
x1 = 1.766e-05 | 0.00687 | 0.0077 | 0.0085 | 0.0094 | 0.0104
